For experiment [1], the target named is T1, dopamine D2 receptor (Rattus norvegicus, UniProt P61169).
T1 construct: from tissue; host or cells: limbic brain tissue homogenate
Description: Ratio of D2 Spiper to D2 Quin. (LowAg/HighAg, intrinsic activity). The experiment is classed as binding. To be noted: D2 Spiper IC50 / D2 Quin. IC50 (LowAg/HighAg). The source says: Efforts to induce antipsychotic activity with dopamine autoreceptor agonists have been successful (e.g., see Dorsini et al., Adv. Biochem. Psychopharmacol., 16:645-648 (1977); Tamminga et al., Science, 200:567-568 (1975); and Tamminga et al., Psychiatry 398-402 (1986). A method for determining intrinsic activity at the dopamine D2 receptor was recently reported by Lahti et al., Mol. Pharm. 42:432-438 (1993). Intrinsic activity is predicted using the ratio of the "low-affinity agonist" (i.e., LowAg) state of the receptor and the "high-affinity agonist" (i.e., HighAg) state of the receptor, i.e. LowAg/HighAg. These ratios correlate with the agonist, partial agonist, and antagonist activities of a given compound. Such activities characterize the ability of a compound to elicit an antipsychotic effect.
The affinity for the dopamine autoreceptor was established by the standard experimental test procedure of Seemen and Schaus, European Journal of Pharmacology, 203:105-109 (1991). According to this procedure, homogenized rat striatal brain tissue was incubated with the appropriate concentrations of test compound, filtered and washed and counted in a Betaplate scintillation counter. […]

Experiment [2] concerns the target T1, dopamine D2 receptor. The experiment is described as follows: Affinity for the dopamine D2 receptor, 3H-spiroperidol binding in limbic brain tissue homogenate (D2 Spiper). The settings on record: 3H-spiroperidol (Spiper.); homogenized limbic brain tissue. How it is done: High affinity for the dopamine D2 receptor was established by the standard experimental test procedure of Fields, et al., Brain Res., 136:578 (1977) and Yamamura et al., eds., Neurotransmitter Receptor Binding, Raven Press, N.Y. (1978). Homogenized limbic brain tissue was incubated with ^3 H-spiroperidol (Spiper.) and the appropriate concentrations of test compound, filtered, washed and shaken with Hydrofluor scintillation cocktail (available from National Diagnostics) and counted in a Packard 460 CD scintillation counter.

The target in experiment [3] is T2, dopamine autoreceptor (D2) (Rattus norvegicus, UniProt P61169).
T2 construct: from tissue; host or cells: rat striatum homogenate
T2 sequence (P61169 whole entry): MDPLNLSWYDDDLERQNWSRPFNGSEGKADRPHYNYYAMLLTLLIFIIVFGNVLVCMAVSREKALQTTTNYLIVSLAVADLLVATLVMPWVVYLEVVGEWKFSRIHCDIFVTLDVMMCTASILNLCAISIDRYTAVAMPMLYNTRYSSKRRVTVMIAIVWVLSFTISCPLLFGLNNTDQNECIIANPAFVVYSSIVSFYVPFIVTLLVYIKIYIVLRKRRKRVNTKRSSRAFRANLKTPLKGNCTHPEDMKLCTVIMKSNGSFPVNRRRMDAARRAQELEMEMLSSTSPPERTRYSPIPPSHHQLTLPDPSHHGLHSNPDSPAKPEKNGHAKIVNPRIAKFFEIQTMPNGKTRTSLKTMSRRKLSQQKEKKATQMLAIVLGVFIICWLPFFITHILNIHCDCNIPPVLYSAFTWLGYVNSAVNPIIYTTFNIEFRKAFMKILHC
The experiment is described as follows: Affinity for the dopamine autoreceptor, rat striatal tissue homogenate (D2 Quin.). The experiment is classed as binding. The settings on record: homogenized rat striatal brain tissue. How it is done:
The affinity for the dopamine autoreceptor was established by the standard experimental test procedure of Seemen and Schaus, European Journal of Pharmacology, 203:105-109 (1991). According to this procedure, homogenized rat striatal brain tissue was incubated with the appropriate concentrations of test compound, filtered and washed and counted in a Betaplate scintillation counter.

Structures are written as SMILES. Counter-ions that a name gives are not always drawn.

T1 sequence (P61169 whole entry): as above

What is called IC50 is the concentration at which inhibition is half-maximal. Turning to `O=C1Cc2c(NCCNCc3ccccc3)cccc2N1` [Example 1, 4-(2-Benzylamino-ethylamino)-1,3-dihydro-indol-2-one.dihydrochloride.0.1 hydrate], in experiment [1], the Ratio is recorded as 67.7. The figures for the IC50 in experiment [2] and in experiment [3] were 892 nM and 13.2 nM, respectively.

These data come from patent US6228880A, “4-amino-(ethylamino)-oxindole dopamine autoreceptor agonists” (American Home Products Corp, priority 1999, dated 2001).
